Assay results as given in US11833229B2, “Labeling precursors with squaric acid coupling” (SCV—SpezialChemikalienVertrieb GmbH, priority 2019, dated 2023).
“And” between values parts separate entries of the source, which are not always exact repeats. Equal values may be shown once. Read-outs that look alike come from different tables or passages of the source.

Experiments:
[1] = system: LNCaP tumor; settings: NMRI nu/nu nude, mouse, in vivo
[2] = system: LNCap cells; test: In vitro IC50 of unlabeled compounds with LNCap cells; format: cell-based
Description: Further compounds according to the invention are those of the DATA.QS.PSMA type, the structure of which corresponds to the other compounds listed, with the DATA chelator enabling simpler and milder labeling. In the synthesis shown in FIG. 37, a yield of about 70% is achieved. In the case of radioactive labeling with ^68Ga, a yield of more than 95% is achieved (FIG. 38).

[3] = system: tumor; test: In vivo PET comparison of DATA.QS.PSMA with PSMA-11 (MIP, time/activity curves)
Description: Furthermore, compounds of the type DATA.QS.PSMA were compared in vivo with PSMA-11 in the same animal model.

[4] = system: tumor; test: Ex vivo activities of 68Ga-DATA.QS.PSMA and 68Ga-PSMA-11; format: in vivo; settings: ± SD
Description: The results of ex vivo investigations (FIGS. 41-43) are in agreement with the in vivo observations.

[5] = system: tumor tissue; test: In vivo and ex vivo investigation of TRAP.QS.PSMA radiotracer; settings: ex vivo, compared to [68Ga]Ga-PSMA-11
Method: FIG. 31a-b, 32-36 show the synthesis and measurement results for radiolabeling, stability and in vivo investigations of the radiotracer [^68Ga]Ga-TRAP.QS.PSMA. […] The in vivo studies were carried out with ^68Ga and ^64Cu. From the images it can be seen that, compared to Examples 8 and 10, the accumulation in the kidneys is […] for both radiotracers.

[6] = system: LNCaP tumor; test: PET preclinical comparative tests of PSMA radiotracers (SUV); settings: 68Ga-labeled tracer; for SUV Nieren: kidneys (Nieren); for SUV Leber: liver (Leber)
[7] = PET scans of bone tracers in young healthy rats; format: in vivo, Wistar rats
Method: The tracer NOTA.QS.PAM according to the invention and the clinically established reference tracer DOTA^Zol were labeled with ^68Ga, injected into young healthy Wistar rats, followed by recording of PET scans at intervals of 5 min, 60 min and 120 min after injection.
Both tracers are characterized by renal excretion and low retention in the remaining tissue.

[8] = target: T1, PREP (Homo sapiens, UniProt P48147); test: PREP IC50 using N-succinyl-Gly-Pro-AMC; format: biochemical; settings: substrate N-succinyl-Gly-Pro-AMC
T1 sequence (P48147 1-710): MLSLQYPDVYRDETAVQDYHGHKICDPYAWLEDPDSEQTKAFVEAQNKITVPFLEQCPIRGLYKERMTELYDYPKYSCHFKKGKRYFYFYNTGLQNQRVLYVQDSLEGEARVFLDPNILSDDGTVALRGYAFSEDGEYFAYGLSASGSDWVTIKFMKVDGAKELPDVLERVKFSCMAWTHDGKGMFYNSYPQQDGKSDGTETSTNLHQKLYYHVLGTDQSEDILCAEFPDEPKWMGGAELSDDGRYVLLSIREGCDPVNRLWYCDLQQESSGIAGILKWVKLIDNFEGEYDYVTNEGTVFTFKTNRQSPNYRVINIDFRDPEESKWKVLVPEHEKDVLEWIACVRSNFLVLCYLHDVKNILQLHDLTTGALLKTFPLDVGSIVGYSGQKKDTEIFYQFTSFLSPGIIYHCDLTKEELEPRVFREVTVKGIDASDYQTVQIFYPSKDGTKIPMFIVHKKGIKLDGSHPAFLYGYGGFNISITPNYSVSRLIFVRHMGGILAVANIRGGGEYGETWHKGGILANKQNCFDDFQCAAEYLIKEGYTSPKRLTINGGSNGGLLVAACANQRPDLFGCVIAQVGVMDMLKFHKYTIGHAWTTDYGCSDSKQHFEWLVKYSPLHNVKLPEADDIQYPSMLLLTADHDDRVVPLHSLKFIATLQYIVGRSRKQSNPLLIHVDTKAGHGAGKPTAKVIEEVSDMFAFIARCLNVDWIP
Method: (§1) The FAP IC50 values were measured using Z-Gly-Pro-7-amino-4-methylcoumarin (AMC). The PREP IC50 values were determined using N-succinyl-Gly-Pro-AMC.

[9] = target: T2, FAP (Homo sapiens, UniProt Q12884); test: FAP IC50 using Z-Gly-Pro-7-amino-4-methylcoumarin (AMC); format: biochemical; settings: for Selectivity index (FAP/PREP): from IC50 FAP and IC50 PREP; for IC50: substrate Z-Gly-Pro-AMC
T2 sequence (Q12884 1-760): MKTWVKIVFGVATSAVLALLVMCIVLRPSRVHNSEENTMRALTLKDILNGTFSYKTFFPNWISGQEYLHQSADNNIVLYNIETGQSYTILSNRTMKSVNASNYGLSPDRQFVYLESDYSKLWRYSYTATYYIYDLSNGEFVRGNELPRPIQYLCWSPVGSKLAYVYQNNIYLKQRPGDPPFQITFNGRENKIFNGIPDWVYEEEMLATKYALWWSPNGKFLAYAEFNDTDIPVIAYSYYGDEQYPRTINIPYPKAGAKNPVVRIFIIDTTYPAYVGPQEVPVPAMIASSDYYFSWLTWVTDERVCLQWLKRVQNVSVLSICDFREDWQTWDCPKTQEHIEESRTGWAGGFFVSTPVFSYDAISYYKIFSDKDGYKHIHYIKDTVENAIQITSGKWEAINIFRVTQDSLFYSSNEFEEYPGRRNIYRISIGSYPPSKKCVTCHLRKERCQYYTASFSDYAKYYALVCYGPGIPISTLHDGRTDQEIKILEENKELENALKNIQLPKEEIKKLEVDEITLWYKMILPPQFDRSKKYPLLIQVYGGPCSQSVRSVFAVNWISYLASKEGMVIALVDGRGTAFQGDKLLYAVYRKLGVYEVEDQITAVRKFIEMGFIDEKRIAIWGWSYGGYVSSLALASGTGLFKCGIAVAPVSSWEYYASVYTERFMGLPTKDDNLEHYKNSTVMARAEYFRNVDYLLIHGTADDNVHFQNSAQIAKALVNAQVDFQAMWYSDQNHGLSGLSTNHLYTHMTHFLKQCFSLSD
Method: as §1

[10] = system: LNCaP tumor; test: Biological distribution by extraction of organs (ex vivo), PSMA tracers; format: in vivo, NMRInu/nu nude mice; settings: for tumor activity (biological distribution): compared with 68Ga-PSMA-11 and 68Ga-PSMA-617
Description: In addition, PET was used to carry out preclinical ex vivo tests with the radiotracers of type [^68Ga]Ga-DOTA.QS.PSMA, [^68Ga]Ga-PSMA-11 and [^68Ga] Ga-PSMA-617 on NMRInu/nu nude mice with an LNCap tumor. […] The results obtained underline those obtained in the in vivo tests.

O=C(O)CC[C@H](NC(=O)N[C@@H](CCCCNC(=O)[C@H](Cc1ccc2ccccc2c1)NC(=O)[C@H]1CC[C@H](CNC(=O)CN2CCN(CC(=O)O)CCN(CC(=O)O)CCN(CC(=O)O)CC2)CC1)C(=O)O)C(=O)O [PSMA-617]
SUV Leber [1]: 0.29 | SUV Nieren [1]: 0.27 | SUV Tumor [1]: 0.73 | IC50 ([2]; Homo sapiens): 15.1 nM

CN(CC(=O)O)C1(CCCCC(=O)NCCNc2c(NCCCCC(NC(=O)NC(CCC(=O)O)C(=O)O)C(=O)O)c(=O)c2=O)CN(CC(=O)O)CCN(CC(=O)O)C1.[68Ga+3] (stereo not drawn) [^68Ga.DATA.QS.PSMA]
accumulation in the tumor ([3]; MIP images): high accumulation | excretion via the kidneys ([3]; first hour, compared with [68Ga]-PSMA-11, time/activity curves): significantly faster | Ex vivo activity LN [4]: 0.35 ± 0.20 % ID/g | Ex vivo activity blood [4]: 0.50 ± 0.19 % ID/g | Ex vivo activity bone [4]: 0.15 ± 0.03 % ID/g | Ex vivo activity heart [4]: 0.17 ± 0.06 % ID/g | Ex vivo activity kidney left [4]: 6.59 ± 2.45 % ID/g | Ex vivo activity kidney right [4]: 6.23 ± 2.39 % ID/g | Ex vivo activity liver [4]: 0.21 ± 0.04 % ID/g | Ex vivo activity lung [4]: 0.59 ± 0.27 % ID/g | Ex vivo activity muscle [4]: 0.09 ± 0.05 % ID/g | Ex vivo activity salivary glands [4]: 0.19 ± 0.07 % ID/g | Ex vivo activity small intestine [4]: 0.31 ± 0.12 % ID/g | Ex vivo activity spleen [4]: 0.54 ± 0.22 % ID/g | Ex vivo activity tumor [4]: 4.65 ± 0.58 % ID/g

O=C(O)CCC(NC(=O)NC(CCCCNc1c(NCCCOCCOCCOCCCNC(=O)CCP(=O)(O)CN2CCN(CP(=O)(O)CCC(=O)NCCCOCCOCCOCCCNc3c(NCCCCC(NC(=O)NC(CCC(=O)O)C(=O)O)C(=O)O)c(=O)c3=O)CCN(CP(=O)(O)CCC(=O)NCCCOCCOCCOCCCNc3c(NCCCCC(NC(=O)NC(CCC(=O)O)C(=O)O)C(=O)O)c(=O)c3=O)CC2)c(=O)c1=O)C(=O)O)C(=O)O.[68Ga+3] (stereo not drawn) [[^68Ga]Ga-TRAP.QS.PSMA]
accumulation in the kidneys [5]: noticeably decreased | accumulation in tumor tissue [5]: elevated

O=C(O)CCC(NC(=O)NC(CCCCNc1c(NCCNC(=O)CCC(C(=O)O)N2CCN(CC(=O)O)CCN(CC(=O)O)CCN(CC(=O)O)CC2)c(=O)c1=O)C(=O)O)C(=O)O (stereo not drawn) [DOTA.QS.PSMA]
SUV Nieren [6]: 0.43 | SUV Leber [6]: 0.27 | SUV Tumor [6]: 0.73

O=C(O)CN1CCN(CC(=O)O)CCN(C(CCC(=O)NCCNc2c(NCCC(O)(P(=O)(O)O)P(=O)(O)O)c(=O)c2=O)C(=O)O)CC1.[68Ga+3] (stereo not drawn) [^68Ga-NOTA.QS.PAM]
SUV femur ([7]; rat, in vivo): 4.5±0.2 | renal excretion ([7]; rat, in vivo): slightly reduced

CN(CC(=O)O)C1(CCCCC(=O)NCCNc2c(NCCCCOc3ccc4nccc(C(=O)NCC(=O)N5CC(F)(F)C[C@H]5C#N)c4c3)c(=O)c2=O)CN(CC(=O)O)CCN(CC(=O)O)C1 [DATA^5m.QS.FAPi - uncomplexed]
IC50 [8]: 1690 ± 90 nM | Selectivity index (FAP/PREP) [9]: 2113 | IC50 [9]: 0.8 ± 0.2 nM

CN(CC(=O)O)C1(CCCCC(=O)NCCNc2c(NCCCCOc3ccc4nccc(C(=O)NCC(=O)N5CC(F)(F)C[C@H]5C#N)c4c3)c(=O)c2=O)CN(CC(=O)O)CCN(CC(=O)O)C1.[Ga+3] [DATA5m.QS.FAPi - natGa]
IC50 [8]: 4700 ± 300 nM | Selectivity index (FAP/PREP) [9]: 6714 | IC50 [9]: 0.7 ± 0.1 nM

O=C(O)CCC(NC(=O)NC(CCCCNc1c(NCCNC(=O)CCC(C(=O)O)N2CCN(CC(=O)O)CCN(CC(=O)O)CCN(CC(=O)O)CC2)c(=O)c1=O)C(=O)O)C(=O)O.[68Ga+3] (stereo not drawn) [^68Ga-DOTA.QS.PSMA]
SUV Tumor [6]: 0.73 | off-target activity in the kidneys ([10]; compared with 68Ga-PSMA-11): significantly lower | tumor activity (biological distribution) [10]: slightly lower or equal | tumor activity (biological distribution) ([10]; listed as [^68Ga]Ga-DOTA.QS.PSMA): slightly lower or the same

O=C(O)CCc1ccc(O)c(CN(CCN(CC(=O)O)Cc2cc(CCC(=O)NCCCCCC(=O)NCCCC[C@H](NC(=O)N[C@@H](CCC(=O)O)C(=O)O)C(=O)O)ccc2O)CC(=O)O)c1 [PSMA-11, reference compound]
SUV Nieren [6]: 4.71 | SUV Leber [6]: 0.25 | SUV Tumor [6]: 1.16

O=C([O-])CN(CCN(CC(=O)[O-])Cc1cc(CCC(=O)NCCCCCC(=O)NCCCC[C@H](NC(=O)N[C@@H](CCC(=O)O)C(=O)O)C(=O)O)ccc1[O-])Cc1cc(CCC(=O)O)ccc1[O-].[68Ga+3].[OH3+] [^68Ga.PSMA 11, reference compound]
Ex vivo activity LN [4]: 0.66 ± 0.10 % ID/g | Ex vivo activity blood [4]: 0.27 ± 0.03 % ID/g | Ex vivo activity bone [4]: 0.15 ± 0.04 % ID/g | Ex vivo activity heart [4]: 0.17 ± 0.03 % ID/g | Ex vivo activity kidney left [4]: 36.66 ± 5.05 % ID/g | Ex vivo activity kidney right [4]: 36.72 ± 4.33 % ID/g | Ex vivo activity liver [4]: 0.23 ± 0.04 % ID/g | Ex vivo activity lung [4]: 0.74 ± 0.04 % ID/g | Ex vivo activity muscle [4]: 0.11 ± 0.03 % ID/g | Ex vivo activity salivary glands [4]: 0.54 ± 0.11 % ID/g | Ex vivo activity small intestine [4]: 0.50 ± 0.14 % ID/g | Ex vivo activity spleen [4]: 3.12 ± 0.39 % ID/g | Ex vivo activity tumor [4]: 5.51 ± 0.38 % ID/g

O=C(O)CN1CCN(CC(=O)O)CCN(CC(=O)NCCc2cncn2CC(O)(P(=O)(O)O)P(=O)(O)O)CCN(CC(=O)O)CC1.[68Ga+3] [^68Ga-DOTA^Zol, reference compound]
SUV femur ([7]; 68Ga-labeled, organ distribution, femur): 3.7±0.4

N#C[C@@H]1CC(F)(F)CN1C(=O)CNC(=O)c1ccnc2ccc(OCCCCNc3c(NCCNC(=O)CN4CCN(CC(=O)O)CCN(CC(=O)O)CCN(CC(=O)O)CC4)c(=O)c3=O)cc12 [DOTA.QS.FAPi - uncomplexed]
IC50 [8]: 5400 ± 300 nM | Selectivity index (FAP/PREP) [9]: 6000 | IC50 [9]: 0.9 ± 0.1 nM

CN(CC(=O)O)C1(CCCCC(=O)NCCNc2c(NCCCCC(NC(=O)NC(CCC(=O)O)C(=O)O)C(=O)O)c(=O)c2=O)CN(CC(=O)O)CCN(CC(=O)O)C1 (stereo not drawn) [DATA.QS.PSMA]
IC50 [2]: 51.5 nM and 51.1 nM
